Measurements taken from patent US7220575B2, “Melanoma differentiation associated gene-5 and promoter and uses thereof” (priority 2000, dated 2007).
Entries after “also recorded” stand apart in the source; their conditions may differ.

Experiments:
mda-5 expression [1] = experiment: Northern blot analysis of mda-5 expression in HO-1 human melanoma cells; type: cell-based; details: HO-1 cells; for mda-5 expression (steady-state mda-5 message level): treated 24 hr, Northern blot
Method: (§1) FIGS. 2A–2B. Northern blot analysis of mda-5 expression by various compounds inducing differentiation in HO-1 human melanoma cells. RNA samples were extracted from cells treated as indicated for 24 hr. FIG. 2A. HO-1 human melanoma cells. FIG. 2B. Early passage human skin fibroblast cells. Northern hybridization was performed as in Materials and Methods.
(§2) FIGS. 4A–4B. Northern blot analysis of mda-5 expression by ligands for various membrane receptors. RNA samples were extracted from cells treated as indicated for 24 hr. FIG. 4A. HO-1 human melanoma cells. FIG. 4B. Early passage human skin fibroblast cells. Northern hybridization was performed as in Materials and Methods.
FIG. 5. Northern blot analysis and time course of mda-5 expression. RNA samples were extracted from HO-1 cells treated with the indicated reagents and harvested at the indicated time after treatment. Northern blotting was performed as in Materials and Methods.
(§3) FIGS. 7A–7C. […] A. Northern blot analysis of mda-5. […] Cells were harvested at the indicated time after actinomycin D treatment. Northern hybridization was performed as in Materials and Methods. FIG. 7B. Nuclear run-on assays for determining mda-5 transcription rates. Nuclei were prepared from HO-1 melanoma cells treated with the indicated reagent(s) for 4 hr. Blots were prepared and hybridized as described in Materials and Methods. […] FIG. 7C. Northern blot analysis of mda-5 expression after blocking protein synthesis by cycloheximide (CHX). RNA samples were extracted from HO-1 melanoma cells pretreated with 50 μg/ml cycloheximide for 30 min and treated with the indicated reagents for 8 hr. Abbreviations and concentrations of indicated reagents are as in FIG. 4.
(§4) Cell Culture and Treatment Protocol: HO-1 human melanoma cells, early passage human skin fibroblast (purchased from ATCC) and 293T cells were grown in Dulbecco's modified Eagle's medium supplemented with 10% fetal bovine serum at 37° C. in a 5% CO2/95% air humidified incubator. Prior to treatment, cells were refed with fresh medium and exposed to the indicated compound(s) at the concentrations specified in the figure legends.
(§5) Northern Blot Analyses and Nuclear Run-On Assays: Total cellular RNA samples were prepared by guanidium isothiocyanate/phenol extraction followed by isopropanol precipitation. Ten 10 μg of total RNA were resolved in 1% agarose gels with formaldehyde and were transferred to Nylon membranes. EcoRI fragment of mda-5 cDNA (2.5 kb) was labeled with 32P using a multiprime labeling kit (Boehringer Mannheim) and used to probe the transferred membrane. Nuclear run-on assays were performed as previously described ((17) Su et al., 1993, 1999). Probes used for nuclear run-on assays were prepared by RT-PCR and included the mda-5 5′, 9–837 bp; mda-5 3′, 2531–3365 bp; and GAPDH fragment.

mda-5 transcription = experiment: Nuclear run-on assays for mda-5 transcription rates in HO-1 melanoma cells; type: cell-based, human; details: HO-1 cells treated 4 hr
Method: as §3
Northern Blot Analyses and Nuclear Run-On Assays: Total cellular RNA samples were prepared by guanidium isothiocyanate/phenol extraction followed by isopropanol precipitation. Ten 10 μg of total RNA were resolved in 1% agarose gels with formaldehyde and were transferred to Nylon membranes. EcoRI fragment of mda-5 cDNA (2.5 kb) was labeled with 32P using a multiprime labeling kit (Boehringer Mannheim) and used to probe the transferred membrane. Nuclear run-on assays were performed as previously described ((17) Su et al., 1993, 1999). […]

mda-5 promoter = mda-5 promoter luciferase reporter in HO-1 cells (transient and stable clones); type: cell-based, human
Method: FIG. 11: Screening of stable human HO-1 melanoma clones for promoter activity of stably integrated mda-5 reporter construct. Transfected HO-1 cells were selected by Puromycin drug selection and individual colonies analyzed for induction of luciferase activity in the presence of IFN-β. Values are expressed as fold change against uninduced values of luciferase activity.
FIG. 12: Induction kinetics of mda-5 promoter activity. Stable clones #20 and #40 were treated with IFN-β and samples were harvested and analyzed for luciferase activity at the times indicated.
FIG. 13: Responsiveness of the mda-5 promoter to IFN-β levels: Stable clones #20 and #40 were treated with IFN-β and samples were harvested and analyzed for luciferase activity 48h after initiation of treatment. The extent of activity was normalized based on equivalent protein content and performed in duplicate for each clone.
FIGS. 14A–14B: Responsiveness of the mda-5 promoter to various inducers: FIG. 14A. HO-1 cells transiently transfected with the mda-5 reporter and treated for 48 h with equivalent units of IFNs α, β and γ and TNF-α and poly IC:IC. The luciferase activity was expressed as fold increase over untreated control cells. FIG. 14B. Clone #40 was treated with equivalent units of the indicated IFNs for 48 h and luciferase activity expressed as fold activation over untreated cells determined. […]

mda-5 expression [2] = experiment: Northern blot analysis of mda-5 expression in early passage human skin fibroblast cells; type: cell-based
Method: as §1, §2, §4, §5

Nc1ncnc2c1ncn2[C@@H]1O[C@@H]2COP(=O)(O)O[C@H]2[C@H]1O [cyclic-AMP, 3′–5′ cyclic adenosine monophosphate]
mda-5 expression (steady-state mda-5 message level) (mda-5 expression [1]): fail to significantly induce mda-5 expression

CC1=C(/C=C/C(C)=C/C=C/C(C)=C/C(=O)O)C(C)(C)CCC1 [all trans retinoic acid, all-trans-retinoic acid]
mda-5 expression (steady-state mda-5 message level) (mda-5 expression [1]): fail to significantly induce mda-5 expression

C=C(C)[C@@]12O[C@@]3(c4ccccc4)O[C@@H]1[C@@H]1[C@@H]4O[C@]4(CO)[C@@H](O)[C@]4(O)C(=O)C(C)=C[C@H]4[C@@]1(O3)[C@H](C)[C@H]2OC(=O)/C=C/C=C/c1ccccc1 [MEZ, mezerein]
augmentation of mda-5 expression by MEZ in combination with IFN-β (mda-5 expression [1]; 24 hr): approximately 3 fold
augmentation of mda-5 expression by MEZ in combination with IFN-γ (mda-5 expression [1]; 24 hr): ~5 fold
time at which mda-5 message level begins increasing / induction first apparent (mda-5 expression [1]; time course): 48 h
mda-5 expression (steady-state mda-5 message level) (mda-5 expression [1]): does not induce mda-5 expression
mda-5 transcription (nuclear run-on) (mda-5 transcription): negligible levels of transcription

C[S+](C)[O-] [dimethyl sulfoxide]
mda-5 expression (steady-state mda-5 message level) (mda-5 expression [1]): fail to significantly induce mda-5 expression

COc1c(C)c2c(c(O)c1C/C=C(\C)CCC(=O)O)C(=O)OC2 [mycophenolic acid]
mda-5 expression (steady-state mda-5 message level) (mda-5 expression [1]): fail to significantly induce mda-5 expression

poly IC
responsiveness of mda-5 promoter construct / clones to inducer (mda-5 promoter): most responsive
mda-5 expression (mda-5 expression [2]): induce mda-5 expression
mda-5 expression (steady-state mda-5 message level) (mda-5 expression [1]): induce mda-5 expression
mda-5 expression (steady-state mda-5 message level) (mda-5 expression [1]; listed as dsRNA): dramatically increases

CCCCCCCCCCCCCC(=O)O[C@@H]1[C@@H](C)[C@@]2(O)[C@@H](C=C(CO)C[C@]3(O)C(=O)C(C)=C[C@@H]23)[C@@H]2C(C)(C)[C@]12OC(C)=O [TPA, 12-O-tetradecanoylphorbol-13-acetate]
mda-5 expression (steady-state mda-5 message level) (mda-5 expression [1]): fail to significantly induce mda-5 expression

IFN-γ: interferon-γ
mda-5 expression (mda-5 expression [2]): induce mda-5 expression
mda-5 expression (steady-state mda-5 message level) (mda-5 expression [1]): induce mda-5 expression; also recorded: increase mda-5 transcript levels, but the magnitude of this effect is less than with IFN-β or dsRNA

C[C@@H]1C[C@@H]([C@H](O)CC2CC(=O)NC(=O)C2)C(=O)[C@@H](C)C1 [Cycloheximide, cycloheximide]
effect of cycloheximide pre-treatment on mda-5 steady-state mRNA levels induced by IFNs, TNF and poly IC (mda-5 expression [1]; 50 μg/ml cycloheximide 30 min, then inducers 8 hr): does not inhibit

TNF-α
mda-5 expression (mda-5 expression [2]): induce mda-5 expression
mda-5 expression (steady-state mda-5 message level) (mda-5 expression [1]): induce mda-5 expression; also recorded: comparable levels as seen with IFN-α

IFN-α
mda-5 expression (mda-5 expression [2]): induce mda-5 expression
mda-5 expression (steady-state mda-5 message level) (mda-5 expression [1]): induce mda-5 expression; also recorded: increase mda-5 transcript levels, but the magnitude of this effect is less than with IFN-β or dsRNA
